Data on one compound can be found in patent US11753603B2, “Acidic cleaning and disinfecting compositions comprising a citric/methansulfonic acid mixture” (THE CLOROX COMPANY, priority 2020, dated 2023).

The assay has as its system bacterial population. Put plainly: Suspension test (kill in 10 minutes). As to conditions: 0.1% citric acid alone. On the procedure: Formula A of Table I includes addition of LAE (0.1%) plus APG (1.0%) and enables the use of citric acid levels as low at 0.1% with complete kill in suspension test in 10 minutes.

Regarding `O=C(O)CC(O)(CC(=O)O)C(=O)O` [citric acid], the “kill in suspension test” value is listed as “little or no kill”.
